Consider 14 molecules from publication PMC5026600 (ACS chemical biology, 2016).

Read-outs that look alike come from different tables or passages of the source.

One assay relates to TamI-RhFRED. Particulars: cited from earlier work.
In a further assay the target is MycCI-RhFRED (Micromonospora griseorubida, UniProt Q83WF5). The assay is described as follows: Steady-state kinetics / TOF, product formation by HPLC. The class given is biochemical. Particulars: for Fold lower rate of product formation vs tripartite MycCI system: MycCI-RhFRED compared to MycCI/MycCII/MBP-FdR, label is the product formed.
Assay [1] concerns the target T1, MycCI (Micromonospora griseorubida, UniProt Q83WF5).
T1 sequence (Q83WF5 1-388): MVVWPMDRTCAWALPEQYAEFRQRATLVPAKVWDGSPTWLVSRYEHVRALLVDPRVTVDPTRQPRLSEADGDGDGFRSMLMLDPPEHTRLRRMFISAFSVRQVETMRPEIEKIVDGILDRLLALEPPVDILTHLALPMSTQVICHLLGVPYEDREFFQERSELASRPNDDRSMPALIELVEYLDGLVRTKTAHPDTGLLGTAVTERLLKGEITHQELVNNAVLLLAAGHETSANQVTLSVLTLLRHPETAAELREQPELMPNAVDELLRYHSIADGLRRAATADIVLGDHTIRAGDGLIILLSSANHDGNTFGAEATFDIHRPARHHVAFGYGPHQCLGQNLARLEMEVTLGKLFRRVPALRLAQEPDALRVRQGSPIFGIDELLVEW
Nature of the assay: Equilibrium substrate binding assay. The settings on record: for Percent of enzyme in high-spin state at saturating substrate: MycCI wild-type, relative to saturation with 10 taken as complete conversion.

For a further assay, the target named is T2, MycCI/MycCII (Micromonospora griseorubida, UniProt Q83WF5).
T2 sequence (Q83WF5 1-388): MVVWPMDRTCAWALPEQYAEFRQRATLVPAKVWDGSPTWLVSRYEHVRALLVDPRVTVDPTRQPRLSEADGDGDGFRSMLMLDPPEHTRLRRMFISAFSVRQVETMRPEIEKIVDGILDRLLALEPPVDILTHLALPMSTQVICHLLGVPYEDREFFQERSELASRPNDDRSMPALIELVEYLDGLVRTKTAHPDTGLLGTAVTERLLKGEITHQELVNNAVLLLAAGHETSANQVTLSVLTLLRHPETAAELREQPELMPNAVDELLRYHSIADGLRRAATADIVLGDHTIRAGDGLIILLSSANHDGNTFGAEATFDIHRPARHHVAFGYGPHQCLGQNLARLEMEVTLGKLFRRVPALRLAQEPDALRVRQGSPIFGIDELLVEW
Nature of the assay: Total turnover number. The settings on record: MycCI/MycCII/MBP-FdR. The class given is biochemical.

In assay [2] the target is T3, MycCI in conjunction with MycCII and MBP-FdR (Micromonospora griseorubida, UniProt Q83WF5).
T3 sequence (Q83WF5 1-388): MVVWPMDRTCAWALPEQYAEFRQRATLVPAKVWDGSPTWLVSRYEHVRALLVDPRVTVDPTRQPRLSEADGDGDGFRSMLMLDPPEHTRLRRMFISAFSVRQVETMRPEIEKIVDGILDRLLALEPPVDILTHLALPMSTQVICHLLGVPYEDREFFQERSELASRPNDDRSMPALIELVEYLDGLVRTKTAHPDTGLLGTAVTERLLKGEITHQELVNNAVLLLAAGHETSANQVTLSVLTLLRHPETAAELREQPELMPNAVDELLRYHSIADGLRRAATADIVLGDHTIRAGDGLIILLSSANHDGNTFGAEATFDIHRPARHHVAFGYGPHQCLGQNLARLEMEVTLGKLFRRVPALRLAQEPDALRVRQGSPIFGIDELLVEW
The assay is described as follows: Scale-up reactions with MycCI, MycCII and MBP-FdR, conversion. The class given is biochemical. Particulars: for Conversion: scale-up reactions.

The target of assay [3] is MycCI (Micromonospora griseorubida) (UniProt Q83WF5). The settings on record: cited from earlier work.
The next assay has as its target TylHI/TylHII (Streptomyces fradiae, UniProt Q9ZHQ1). The assay is described as follows: Turnover frequency. The class given is biochemical. Particulars: TylHI/TylHII/MBP-FdR.
The target in another assay is TylHI/MycCII (Streptomyces fradiae, UniProt Q9ZHQ1). Nature of the assay: Turnover frequency. The format is biochemical. Particulars: MycCII as surrogate ferredoxin vs TylHII.
Chain of TylHI/MycCII (Q9ZHQ1 whole entry): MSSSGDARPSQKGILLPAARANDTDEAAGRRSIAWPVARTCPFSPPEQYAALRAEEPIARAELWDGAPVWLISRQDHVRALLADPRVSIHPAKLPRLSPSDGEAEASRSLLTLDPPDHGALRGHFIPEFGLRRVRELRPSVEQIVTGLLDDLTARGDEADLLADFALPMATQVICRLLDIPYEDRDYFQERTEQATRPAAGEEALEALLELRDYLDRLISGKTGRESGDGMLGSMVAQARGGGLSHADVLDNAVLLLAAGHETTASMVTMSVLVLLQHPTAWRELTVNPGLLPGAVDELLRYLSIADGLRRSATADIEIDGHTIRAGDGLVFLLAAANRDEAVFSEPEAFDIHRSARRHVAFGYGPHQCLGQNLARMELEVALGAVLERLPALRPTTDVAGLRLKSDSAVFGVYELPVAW
The target of the next assay is OleP. The settings on record: binding to OleP; cited from earlier work.
In assay [4] the target is T1, MycCI. The settings on record: determined by monitoring NADPH consumption; cited from earlier work.
In another assay the target is T4, MycCI/MycCII/MBP-FdR (Micromonospora griseorubida, UniProt Q83WF5).
T4 sequence (Q83WF5 1-388): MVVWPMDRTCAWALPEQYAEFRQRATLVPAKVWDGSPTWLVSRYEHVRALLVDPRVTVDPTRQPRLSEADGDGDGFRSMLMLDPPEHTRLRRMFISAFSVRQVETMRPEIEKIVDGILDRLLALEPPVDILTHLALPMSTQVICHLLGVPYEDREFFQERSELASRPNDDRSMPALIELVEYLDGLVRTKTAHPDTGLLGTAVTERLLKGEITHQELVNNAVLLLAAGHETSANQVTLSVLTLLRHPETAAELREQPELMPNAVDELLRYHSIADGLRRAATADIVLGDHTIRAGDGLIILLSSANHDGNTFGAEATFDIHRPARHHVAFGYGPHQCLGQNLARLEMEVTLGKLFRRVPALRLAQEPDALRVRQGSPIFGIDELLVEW
The assay is described as follows: Steady-state kinetics / TOF, product formation by HPLC. The format is biochemical.

For assay [5], the target named is T1, MycCI. The settings on record: read-out: apparent dissociation constant (Kd); N-terminal His-tagged MycCII binding to MycCI; cited from earlier work.

Chain of TylHI/TylHII (Q9ZHQ1 whole entry): as the sequence (Q9ZHQ1 whole entry) above

One may read the kcat as the maximal rate divided by the concentration of active sites. Regarding `CC(/C=C/C(O)=C1/C(=O)CNC1=O)=C\[C@@H](C)[C@H]1O[C@@]2(C)O[C@H](C(=O)[C@H]3O[C@]32C)[C@@H]1C` [tirandamycin A], in the assay on TamI-RhFRED, the kcat was 0.00183 ± 0.00017 s⁻¹.
Take `CC[C@H]1OC(=O)/C=C/[C@H](C)[C@@H](O)[C@@H](C)C[C@@H](C)C(=O)/C=C/C=C/[C@@H]1CO` [compound 13, mycinolide IV]: the “Fold lower rate of product formation vs tripartite MycCI system” value on MycCI-RhFRED is recorded as about 6 fold.
Turning to `CC[C@H]1OC(=O)[C@H](C)[C@@H](O)[C@@H](C)C[C@@H](C)C(=O)/C=C/[C@H]1C` [compound 2, 10-deoxymethynolide], the “Concentration-dependent change in the spin state of the enzyme” value at MycCI [1] (MycCI) is given as “did not induce a concentration-dependent change in the spin state”. The “C-H oxidation of the compound by the enzyme” value (from here on “C-H oxidation of the compound”) at MycCI/MycCII is recorded as “unable to catalyze C-H oxidation”.
`CC[C@H]1OC(=O)[C@H](C)C(=O)[C@H](C)[C@@H](O)[C@@H](C)C[C@@H](C)C(=O)/C=C/[C@H]1C` [compound 4, narbonolide]: the “Concentration-dependent change in the spin state of the enzyme” value on MycCI [1] (MycCI) is “did not induce a concentration-dependent change in the spin state”. At MycCI/MycCII, the “C-H oxidation of the compound” value was “unable to catalyze C-H oxidation”.
Regarding `CC[C@H]1OC(=O)/C=C/[C@H](C)[C@@H](O)[C@@H](C)C[C@@H](C)C(=O)/C=C/C=C/[C@@H]1C` [compound 8, protomycinolide IV], in assay [2], the Conversion is reported as ~ 30%. Moreover, on MycCI [1], the “Percent of enzyme in high-spin state at saturating substrate” value (from here on “Percent of enzyme in high-spin state”) is given as ~ 80%. Also, the “Fold lower specificity constant relative to 10” value on MycCI-RhFRED (MycCI-RhFRED, product formation) is listed as ~ 14 fold.
For MycCII (from UniProt Q83WF4), the Kd in [3] is 7 µM.
On to `CC[C@H]1OC(=O)C[C@@H](O)[C@H](C)[C@@H](O[C@@H]2O[C@H](C)[C@@H](O)[C@H](N(C)C)[C@H]2O)[C@@H](CC=O)C[C@@H](C)C(=O)/C=C/C(C)=C/[C@@H]1C` [compound 12, 23-deoxy-5-O-mycaminosyl-tylonolide], for which the “Turnover frequency (TOF)” value on TylHI/TylHII was 0.14 ± 0.03 min⁻¹. The “Fold increase of TOF with MycCII instead of TylHII” value at TylHI/MycCII was found to be 12 fold.
For the molecule `CC(=O)N1CCN(c2ccc(OCC3COC(Cn4ccnc4)(c4ccc(Cl)cc4Cl)O3)cc2)CC1` (centres unmarked) [ketoconazole], the Kd on OleP was 0.005 µM.
Turning to `CC[C@H]1OC(=O)/C=C/[C@H](C)[C@@H](O[C@@H]2O[C@H](C)C[C@H](N(C)C)[C@H]2O)[C@@H](C)C[C@@H](C)C(=O)/C=C/C=C/[C@@H]1C` [compound 9, mycinamicin VIII], at MycCI [4], the kcat was 1.73 ± 0.033 s⁻¹. Further, the “Turnover rate at low substrate concentration” value at MycCI/MycCII/MBP-FdR (MycCI/MycCII/MBP-FdR, 10 μM substrate) amounted to 2.3 ± 0.3 min⁻¹. Moreover, the “Turnover frequency (TOF)” value was 1.4 ± 0.1 min⁻¹ at MycCI/MycCII/MBP-FdR (tripartite MycCI/MycCII/MBP-FdR, 500 μM substrate) and 1.19 ± 0.06 min⁻¹ at MycCI-RhFRED (MycCI-RhFRED, 500 μM substrate).
Take `CC[C@H]1OC(=O)[C@H](C)[C@@H](O[C@@H]2O[C@H](C)C[C@H](N(C)C)[C@H]2O)[C@@H](C)C[C@@H](C)C(=O)/C=C/[C@H]1C` [compound 3, YC-17]: at MycCI [1], the “Percent of enzyme in high-spin state” value was ~ 30%. In addition, on MycCI/MycCII, the “C-H oxidation of the compound” value is “unable to catalyze C-H oxidation”.
Take `CC[C@H]1C[C@@H](C)C(=O)/C=C/C(C)=C/[C@H](C)[C@@H](CC)OC(=O)C[C@@H](O)[C@H](C)[C@H]1O` [compound 10, tylactone]: the Conversion in assay [2] is recorded as ~ 50%. In addition, on MycCI [1] (Kd, MycCI), the Kd is about 3 µM.
With 23-hydroxy-tylactone [compound 15], at MycCI-RhFRED, the “Fold lower rate of product formation vs tripartite MycCI system” value was “about 3 fold”.
As for `CC[C@H]1OC(=O)[C@H](C)C(=O)[C@H](C)[C@@H](O[C@@H]2O[C@H](C)C[C@H](N(C)C)[C@H]2O)[C@@H](C)C[C@@H](C)C(=O)/C=C/[C@H]1C` [compound 5, narbomycin], the “Monohydroxylated product, share of the reaction mixture” value in assay [2] (scale-up, first monohydroxylated product) is recorded as ~ 2%. In addition, the “Slightly more polar monohydroxylated product, share of the reaction mixture” value in assay [2] (scale-up, second product) is ~ 0.5%. Moreover, on MycCI [1], the “Percent of enzyme in high-spin state” value was ~ 80%.

B1: MycCII: [3Fe-4S]-type ferredoxin encoded by mycCII, redox partner of MycCI (protein)
chain: MRIVLDAERCVGAGQCEATAPELFTQGDDGLGLVRDRPVTPELLGPAREAVDRCPVRAIRIESSVRTGWARGAG
modifications: left off: His tag, N-terminal, state not stated
For B1, the Kd with MycCI [5] was 7 µM.
